Values after ≈ are worked out from the molar mass of the structure shown.
Tests used:
[1] = in vivo; details: C57BL/6, mouse, iv, 0.2 mg/kg
[2] = in vivo; details: C57BL/6, mouse, iv, 0.2 mg/kg; remark: listed apart in the source
[3] = physchem; details: PBS buffer, pH 7.4
[4] = Oral bioavailability in C57/BL6 mouse at 30 mg/kg administered as homogeneous suspension in 0.5% methocel/0.25% tween20 in 50 mM acetate buffer (pH 5.5) and measured after 2 hrs by HPLC-MS/MS analysis; assay type: ADME, organism-based; details: in vivo

Vd at 2 h [1] [L/kg]	clearance at 2 h [2] [mL/min/kg]	bioavailability [4] [%]	Compound	solubility at 24 h [3] [µg/mL]
0.4	10	–	CCOc1ccc(S(=O)(=O)Nc2ccccc2C#Cc2ccc(C(=O)O)nc2)c2ncccc12	–
1.9	31.7	45	Cc1cc(C#Cc2ccccc2NS(=O)(=O)c2c(C)ccc3cccnc23)cnc1C(=O)O	384 (≈ 839 µM)

Compound	Vd at 2 h [1] [L/kg]	clearance at 2 h [2] [mL/min/kg]	bioavailability [4] [%]	solubility at 24 h [3] [µg/mL]
COc1ccc(S(=O)(=O)Nc2ccccc2C#Cc2ccc(C(=O)O)nc2)c2ncccc12	0.6	6.67	–	445 (≈ 968 µM)
